Source: patent US10131652B2, “Pyrimidinyloxy benzene derivatives as herbicides” (E. I. DU PONT DE NEMOURS AND COMPANY, priority 2014, dated 2018)
Where two headings read alike, the source gives them in different places.

Tests used:
Type in all cases: in vivo
[1] = system: pigweed (Amaranthus retroflexus); experiment: Test B pre-/postemergence plant response; conditions: for pest or weed control at 500 g/ha: 500 g ai/ha
Method in brief: (§1)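 Steps: plant seeds in loam soil–sand mix; spray soil preemergence, and in parallel spray 2–10 cm one- to two-leaf plants postemergence; hold ~10 days in greenhouse; visually rate injury against untreated controls (0 = no effect, 100 = complete control).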

[2] = system: wheat (Triticum aestivum); experiment: Test B pre-/postemergence plant response; conditions: Triticum aestivum, post-emergence, 240 h, read-out: Plant response rating, Wheat
Method in brief: as §1

corn (Zea mays) = experiment: Test B pre-/postemergence plant response; conditions: Zea mays, post-emergence, 240 h
Method in brief: as §1

[3] = system: giant foxtail (Setaria faberii); experiment: Test B pre-/postemergence plant response; conditions: for pest or weed control at 500 g/ha: 500 g ai/ha
Method in brief: as §1

[4] = system: barnyardgrass (Echinochloa crus-galli); experiment: Test B pre-/postemergence plant response; conditions: for pest or weed control at 500 g/ha: 500 g ai/ha
Method in brief: as §1

[5] = system: pigweed (Amaranthus retroflexus); experiment: Test D pre-/postemergence plant response; conditions: Amaranthus retroflexus; for pest or weed control at 31 g/ha: 31 g ai/ha; for pest or weed control at 62 g/ha: 62 g ai/ha; for pest or weed control at 125 g/ha: 125 g ai/ha
Method in brief: (§2)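 Visual rating, 0–100 scale (0 = no effect, 100 = complete control), versus untreated controls 13 to 15 days after treatment in greenhouse. Preemergence: seeds in loam/sand soil. Postemergence: 2 to 18 cm plants, 1- to 4-leaf stage, peat-based medium. Compounds formulated in non-phytotoxic solvent plus surfactant.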

[6] = system: ragweed (common ragweed, Ambrosia elatior); experiment: Test D pre-/postemergence plant response; conditions: Ambrosia artemisiifolia; for pest or weed control at 31 g/ha: 31 g ai/ha; for pest or weed control at 62 g/ha: 62 g ai/ha; for pest or weed control at 125 g/ha: 125 g ai/ha
Method in brief: as §2

[7] = system: morningglory (Ipomoea coccinea); experiment: Test D pre-/postemergence plant response; conditions: Ipomoea; for pest or weed control at 31 g/ha: 31 g ai/ha; for pest or weed control at 62 g/ha: 62 g ai/ha; for pest or weed control at 125 g/ha: 125 g ai/ha
Method in brief: as §2

[8] = system: blackgrass (Alopecurus myosuroides); experiment: Test D pre-/postemergence plant response; conditions: Alopecurus myosuroides; for pest or weed control at 16 g/ha: 16 g ai/ha; for pest or weed control at 31 g/ha: 31 g ai/ha; for pest or weed control at 62 g/ha: 62 g ai/ha; for pest or weed control at 125 g/ha: 125 g ai/ha
Method in brief: as §2

[9] = system: giant foxtail (Setaria faberii); experiment: Test D pre-/postemergence plant response; conditions: Setaria faberi, post-emergence, Postemergence
Method in brief: as §2

[10] = Preemergence, 125 g ai/ha, 0 to 100 scale (0 no effect, 100 complete control)
[11] = 125 g ai/ha, postemergence, 0 to 100 scale, 0 no effect, 100 complete control
[12] = Postemergence, 500 g ai/ha, 0 to 100 scale (0 no effect, 100 complete control)
[13] = post-emergence, Postemergence, scale 0 to 100, 0 no effect, 100 complete control, read-out: Plant response rating, Pigweed
[14] = pre-emergence, Preemergence, scale 0 to 100 (0 no effect, 100 complete control), read-out: Plant response rating, Pigweed
[15] = post-emergence, Postemergence, scale 0 to 100, 0 no effect, 100 complete control, read-out: Plant response rating, Ragweed
[16] = pre-emergence, Preemergence, scale 0 to 100 (0 no effect, 100 complete control), read-out: Plant response rating, Ragweed
[17] = post-emergence, Postemergence, scale 0 to 100, 0 no effect, 100 complete control, read-out: Plant response rating, Morningglory
[18] = pre-emergence, Preemergence, scale 0 to 100 (0 no effect, 100 complete control), read-out: Plant response rating, Morningglory
[19] = post-emergence, Postemergence, scale 0 to 100 (0 no effect, 100 complete control), read-out: Blackgrass plant response rating
[20] = post-emergence, Postemergence, scale 0 to 100, 0 no effect, 100 complete control, read-out: Plant response rating, Blackgrass
[21] = pre-emergence, Preemergence, scale 0 to 100 (0 no effect, 100 complete control), read-out: Plant response rating, Blackgrass

SMILES: Fc1cccc(Oc2ncc(Cl)cn2)c1-c1cc(C(F)(F)F)on1 [Compound 168, 5-chloro-2-[2-[5-(trifluoromethyl)-3-isoxazolyl]-3-fluorophenoxy]pyrimidine]
- pest or weed control at 125 g/ha ([1]; Amaranthus retroflexus, post-emergence, 240 h, 125 g ai/ha, postemergence, 0 to 100 scale, 0 no effect, 100 complete control, read-out: Plant response rating, Pigweed): 100%
- pest or weed control at 500 g/ha ([1]; Amaranthus retroflexus, post-emergence, 240 h, Postemergence, 0 to 100 scale (0 no effect, 100 complete control), read-out: Plant response rating, Pigweed): 100%
- pest or weed control at 500 g/ha ([1]; Amaranthus retroflexus, pre-emergence, 240 h, Preemergence, 0 to 100 scale where 0 is no effect and 100 is complete control, read-out: Plant response rating, Pigweed): 100%
- Pigweed plant response rating [1, 10]: 100
- plant injury at 125 g/ha [2, 11]: 100%
- plant injury at 500 g/ha [2, 12]: 100%
- Corn plant response rating (crop injury, 0 = no effect, 100 = complete kill) at 125 g/ha (corn (Zea mays); [11]): 100%
- Corn plant response rating (crop injury, 0 = no effect, 100 = complete kill) at 500 g/ha (corn (Zea mays); [12]): 100%
- Foxtail, Giant plant response rating [3, 10]: 100
- pest or weed control at 125 g/ha ([3]; Setaria faberi, post-emergence, 240 h, 125 g ai/ha, postemergence, 0 to 100 scale, 0 no effect, 100 complete control, read-out: Plant response rating, Foxtail, Giant): 100%
- pest or weed control at 500 g/ha ([3]; Setaria faberi, post-emergence, 240 h, Postemergence, 0 to 100 scale (0 no effect, 100 complete control), read-out: Plant response rating, Foxtail, Giant): 100%
- pest or weed control at 500 g/ha ([3]; Setaria faberi, pre-emergence, 240 h, Preemergence, 0 to 100 scale where 0 is no effect and 100 is complete control, read-out: Plant response rating, Foxtail, Giant): 100%
- pest or weed control at 125 g/ha ([4]; Echinochloa crus-galli, post-emergence, 240 h, 125 g ai/ha, postemergence, 0 to 100 scale, 0 no effect, 100 complete control, read-out: Plant response rating, Barnyardgrass): 100%
- pest or weed control at 500 g/ha ([4]; Echinochloa crus-galli, post-emergence, 240 h, Postemergence, 0 to 100 scale (0 no effect, 100 complete control), read-out: Plant response rating, Barnyardgrass): 100%
- pest or weed control at 500 g/ha ([4]; Echinochloa crus-galli, pre-emergence, 240 h, Preemergence, 0 to 100 scale where 0 is no effect and 100 is complete control, read-out: Plant response rating, Barnyardgrass): 100%
- Barnyardgrass plant response rating [4, 10]: 100
- pest or weed control at 31 g/ha ([5]; post-emergence, Postemergence, scale 0 to 100 (0 no effect, 100 complete control), read-out: Pigweed plant response rating): 85%
- pest or weed control at 62 g/ha [5, 13]: 95%
- pest or weed control at 125 g/ha [5, 13]: 98%
- pest or weed control at 125 g/ha ([5]; pre-emergence, Preemergence, read-out: Plant response rating (scale 0 to 100), Pigweed): 100%
- pest or weed control at 16 g/ha ([5]; pre-emergence, Preemergence, 16 g ai/ha, scale 0 to 100 (0 no effect, 100 complete control), read-out: Plant response rating, Pigweed): 85%
- pest or weed control at 31 g/ha [5, 14]: 100%
- pest or weed control at 62 g/ha [5, 14]: 100%
- pest or weed control at 31 g/ha ([6]; post-emergence, Postemergence, scale 0 to 100 (0 no effect, 100 complete control), read-out: Ragweed plant response rating): 50%
- pest or weed control at 62 g/ha [6, 15]: 55%
- pest or weed control at 125 g/ha [6, 15]: 55%
- pest or weed control at 125 g/ha ([6]; pre-emergence, Preemergence, read-out: Plant response rating (scale 0 to 100), Ragweed): 100%
- pest or weed control at 16 g/ha ([6]; pre-emergence, Preemergence, 16 g ai/ha, scale 0 to 100 (0 no effect, 100 complete control), read-out: Plant response rating, Ragweed): 35%
- pest or weed control at 31 g/ha [6, 16]: 45%
- pest or weed control at 62 g/ha [6, 16]: 100%
- pest or weed control at 31 g/ha ([7]; post-emergence, Postemergence, scale 0 to 100 (0 no effect, 100 complete control), read-out: Morningglory plant response rating): 85%
- pest or weed control at 62 g/ha [7, 17]: 85%
- pest or weed control at 125 g/ha [7, 17]: 85%
- pest or weed control at 125 g/ha ([7]; pre-emergence, Preemergence, read-out: Plant response rating (scale 0 to 100), Morningglory): 100%
- pest or weed control at 16 g/ha ([7]; pre-emergence, Preemergence, 16 g ai/ha, scale 0 to 100 (0 no effect, 100 complete control), read-out: Plant response rating, Morningglory): 5%
- pest or weed control at 31 g/ha [7, 18]: 70%
- pest or weed control at 62 g/ha [7, 18]: 80%
- pest or weed control at 16 g/ha [8, 19]: 10%
- pest or weed control at 31 g/ha [8, 19]: 15%
- pest or weed control at 62 g/ha [8, 20]: 15%
- pest or weed control at 125 g/ha [8, 20]: 20%
- pest or weed control at 125 g/ha ([8]; pre-emergence, Preemergence, read-out: Plant response rating (scale 0 to 100), Blackgrass): 90%
- pest or weed control at 16 g/ha [8, 21]: 85%
- pest or weed control at 31 g/ha [8, 21]: 90%
- pest or weed control at 62 g/ha [8, 21]: 90%
- pest or weed control at 16 g/ha ([9]; 16 g ai/ha, scale 0 to 100 (0 no effect, 100 complete control), read-out: Foxtail, Giant plant response rating): 35%
- pest or weed control at 31 g/ha ([9]; 31 g ai/ha, scale 0 to 100 (0 no effect, 100 complete control), read-out: Foxtail, Giant plant response rating): 35%
- pest or weed control at 62 g/ha ([9]; 62 g ai/ha, scale 0 to 100, 0 no effect, 100 complete control, read-out: Plant response rating, Foxtail, Giant): 40%
